In assay [1] the test system is rat choroidal neovascularization model. Description: Neovascularization incidence test using laser-induced rat choroidal neovascularization model. Type of assay: in vivo. To be noted: po, 168 h; Brown Norway rat, krypton laser photocoagulation, 30 mg/kg/day orally once a day for seven days, ratio to vehicle administration group, average of three to four individuals and six to eight eyes; read-out: Ratio of neovascularization incidence rate (% of Control). The method, then:
Neovascularization incidence tests of the present compounds were carried out using a rat choroidal neovascularization model, which is one of widely-used methods of evaluating in vivo choroidal neovascularization inhibitory effects of drugs.
As one of widely-used methods of evaluating choroidal neovascularization inhibitory effects of drugs, a neovascularization incidence test using rat choroidal neovascularization models was reported in Graefe's Arch. Cli. Exp. Ophthalmol., 235, 313-319(1997). According to the method described in the above-mentioned literature, neovascularization incidence tests of the present compounds were carried out, ratios of neovascularization incidence rates of present compounds administration groups were calculated to a neovascularization incidence rate of vehicle administration group (control group), and choroidal neovascularization inhibitory effects of the present compounds were evaluated using the obtained ratios as indexes.
A 1% aqueous methyl cellulose solution was added to each test compound to suspend it thereby to prepare a 6 mg/10 ml test compound suspension.
• 1) A 7:1 mixed solution (1 ml/kg) of a 5% ketamine hydrochloride injection and a 2% xylazine hydrochloride injection was administered intramuscularly to rats (Brown Norway, male, eight weeks old, weight: 200 to 250 g) to anesthetize them systemically. • 2) A tropicamide-phenylephrine hydrochloride ophthalmic solution (trade name: Mydrin-P) was instilled into eyes to cause mydriasis, and then photocoagulation was performed in a Bruch's membrane of each rat using a krypton laser photocoagulation apparatus. The laser irradiation was carried out at eight spots per eye sparsely avoiding thick retinal vessels in a posterior section of ocular fundus and focusing on the retinal deep site. Photocoagulation conditions were adjusted to 100 μm of spot size, […] of output and 0.1 sec. of coagulation time. • 3) After the photocoagulation, the ocular fundus was photographed to confirm photocoagulation (laser irradiation) sites. […] Method of Evaluation • 1) Seven days after the photocoagulation, 0.1 ml of a 10% aqueous fluorescein solution was injected into a tail vein of the rat, and fluorescein fundus photography was performed. • 2) Next, in the fluorescein fundus photography, a spot where fluorescence leak was not observed was judged as negative, and a spot where fluorescence leak was observed was judged as positive. Photocoagulation sites where a little fluorescence leak was observed were judged as positive when two sites are present. • 3) Neovascularization incidence rates were calculated according to the calculation equation 1. Ratios of the neovascularization incidence rates of the test compound administration groups to that of the vehicle administration group were calculated according to the calculation equation 2 from neovascularization incidence rates of respective administration groups.
The values are the average of three to four individuals and six to eight eyes.

In assay [2] the test system is VEGF-induced HUVEC growth. Description: VEGF-induced HUVEC growth reaction evaluation system (cell growth inhibitory action test). In kind it is cell-based. The following applies: Homo sapiens, 72 h, 20 μg/ml test compound solution added 5 μl per well (100 μl), VEGF solution 400 ng/ml 5 μl per well, three days, absorbance at 450 nm, read-out: Cell growth inhibition rate (%).

For assay [3], the system named is rat adjuvant arthritis model. Description: Paw edema inhibitory action test using rat adjuvant arthritis model. In kind it is in vivo. To be noted: po, 504 h; Lewis rat, adjuvant-untreated (secondary inflammation) paw, 10 mg/kg/day orally once a day, 21 days after, average of eight rats; read-out: Paw edema inhibition rate (%). The method, then:
Paw edema inhibitory action tests of the present compounds were carried out using a rat adjuvant arthritis model, which is one of widely-used methods of evaluating in vivo antiarthritis effects of drugs.
As one of widely-used methods of evaluating antiarthritic effects of drugs, a paw edema inhibitory action test using rat adjuvant arthritis models is known. Paw edema inhibitory action tests of the present compounds were carried out, their paw edema inhibition rates were calculated, and antiarthritic effects of the present compounds were evaluated using the obtained rates as indexes.
A 1% aqueous methyl cellulose solution was added to each test compound to suspend it thereby to prepare a 2 mg/ml test compound suspension.
Liquid paraffin was added to Mycobacterium-butyricum to suspend it to prepare 6 mg/ml adjuvant.
Each paw edema inhibition rate of paw edema in an adjuvant-untreated paw (secondary inflammation paw) in each test compound administration group was calculated to paw edema in a secondary inflammation paw in a control group, and antiarthritic effects of the present compounds were evaluated using the obtained rates as indexes.
Paw edema rates were calculated from the following calculation equation 1, and then paw edema inhibition rates (the average of eight rats per group), which are indexes of the antiarthritic effects, were calculated from the calculation equation 2.

In another assay the test system is B16 cells. Description: Tumor growth inhibitory action test using mouse cancer model (B16 cells). To be noted: po, 240 h; C57BL/6 mouse, B16 cells intradermally, 100 mg/kg/day orally once a day, ten days after injection, average of nine mice; read-out: Tumor tissue weight inhibition rate (%). In kind it is in vivo. The method, then: Tumor proliferation inhibitory action tests of the present compounds were carried out using a mouse cancer model, which is one of widely-used methods of evaluating in vivo anticancer effects of drugs.
As one of widely-used methods of evaluating anticancer effects of drugs, a tumor growth inhibitory action test using mouse cancer models was reported in Cancer Res., 59, 5209-5218(1999). According to the method described in the above-mentioned literature, tumor growth inhibitory action tests of the present compounds were carried out, their tumor tissue weight inhibition rates were calculated, and anticancer effects of the present compounds were evaluated using the obtained rates as indexes.
A 1% aqueous methyl cellulose solution was added to each test compound to suspend it with a sonicator thereby to prepare a 10 mg/ml test compound suspension.
Physiological saline was added to B16 cells to prepare a 3.3×10^7 cells/ml B16 cell suspension.
Calculation of Tumor Tissue Weight Inhibition Rate
Tumor tissue weight inhibition rates (the average of nine mice per group), which are indexes of anticancer effects were calculated, from the following calculation equation.

The term inhibition denotes how much of the control response was suppressed.

Structures are written as SMILES.

Consider `Cc1cc(C)cc(NC(=O)c2cccnc2SCc2cc[n+]([O-])cc2)c1` [4-4, N-(3,5-Dimethylphenyl)-2-(1-oxopyridin-4-ylmethylthio)pyridine-3-carboxamide], for which the response vs control in vivo at 30 mg/kg/day in assay [1] turned out to be 26%. For the same compound, the inhibition at 20 µg/mL (stock) in assay [2] stood at 100%. The inhibition in vivo at 10 mg/kg/day in assay [3] was determined as 21%. For the same compound, the inhibition in vivo at 100 mg/kg/day in the assay with B16 cells is 77%.
Regarding `O=C(Nc1cc2ccccc2cn1)c1cccnc1SCc1ccncc1` [1-22, N-(3-Isoquinolyl)-2-(4-pyridylmethylthio)pyridine-3-carboxamide], the inhibition at 20 µg/mL (stock) in assay [2] is 100%. In assay [3], the inhibition in vivo at 10 mg/kg/day amounted to 27%. In addition, the inhibition in vivo at 100 mg/kg/day with B16 cells came out at 45%.
With `O=C(Nc1ccc(SC(F)(F)F)cc1)c1cccnc1SCc1ccncc1` [1-158, 2-(4-Pyridylmethylthio)-N-(4-trifluoromethylthiophenyl)pyridine-3-carboxamide], the inhibition at 20 µg/mL (stock) in assay [2] is 100%. Further, in assay [3], the inhibition in vivo at 10 mg/kg/day came out at 22%. In the assay with B16 cells, the inhibition in vivo at 100 mg/kg/day turned out to be 76%.
Consider `O=C(Nc1ccc(OC(F)(F)F)c(Cl)c1)c1cccnc1SCc1ccncc1` [1-137, N-(3-Chloro-4-trifluoromethoxyphenyl)-2-(4-pyridylmethylthio)pyridine-3-carboxamide], for which the response vs control in vivo at 30 mg/kg/day in assay [1] came out at 65%. Moreover, the inhibition at 20 µg/mL (stock) in assay [2] worked out at 100%. Also, in assay [3], the inhibition in vivo at 10 mg/kg/day is 39%. Also, the inhibition in vivo at 100 mg/kg/day with B16 cells worked out at 66%.
